Measurements published in patent US20190112580A1, “METHODS FOR TREATING CO[…] AND RELATED CULTURED CELLS” (priority 2017, published 2019).

Assays:
Assay type in all cases: cell-based, human
ITGB1D = ITGB1D protein quantification by Western blotting; settings: 5 μM applied before differentiation; CP cultures; 48 hours of differentiation in low serum medium
Procedure: After separation, proteins were transferred to 0.45 μm nitrocellulose membrane in a Tris-glycine buffer complemented with 20% methanol. To visualize bands and detect transfer efficiency, membranes were stained with Ponceau S. Membranes were then blocked in a buffer containing 10 mM Tris, 0.15 M NaCl, 0.1% Tween-20 and 1% BSA and incubated with a desired primary antibody (typically 1:500 to 1:1000 dilution) overnight at 4° C. After washing, membranes were incubated with peroxidase-conjugated secondary antibodies (typically at a 1:1000 dilution) for 1 hour at room temperature (Jackson ImmunoResearch Laboratories). Bandscan was identified using chemiluminescence (ECL). Bands also were analyzed by densitometry on a PXi imager (Syngene) and values expressed as arbitrary values of protein levels, normalized either by total proteins transferred on nitrocellulose membrane (as visualized with Ponceau S) or by another reference protein detected by Western blotting.
To test for protein expression levels as shown in FIG. 3A to 3E and FIGS. 4D and 4E, Western blotting was used. […]

[1] = tested on: CP and TD myoblast preparations; test: Cell doubling time, xCELLigence RTCA DP; settings: 5 μM, 24 hours; FIG. 9B
Procedure: FIG. 9B. A cell impedance-measuring xCELLigence RTCA DP instrument was used to quantify rates of “cell doubling time” (a measurement of cell proliferation) in CP and TD myoblast preparations, treated and non-treated with 5-AZA, as illustrated in FIG. 9B. Proliferating myoblasts were treated with 5 μM 5-AZA (Sigma-Aldrich) for 24 hours to induce DNA hypomethylation. Other cell preparations were not treated with 5-AZA to serve as a control. Following treatment, myoblasts were harvested from exponential growth phase cultures by a standardized detachment procedure using 0.05% Trypsin-EDTA and counted. […] Plates were locked in the RTCA DP device in the incubator and the impedance value of each well was automatically monitored by the xCELLigence system and expressed as a Cell Index value (CI). […] CI was recorded every 15 min for the entirety of the period. Cell doubling time was calculated from the exponential phase of the growth curve generated by the CI values using the supplied RTCA software.
A cell impedance-measuring xCELLigence RTCA DP instrument was used to quantify rates of “cell doubling time” (a measurement of cell proliferation) in CP and TD myoblast preparations, treated and non-treated with 5-AZA, as illustrated in FIG. 9B. […] Following treatment, myoblasts were harvested from exponential growth phase cultures by a standardized detachment procedure using 0.05% Trypsin-EDTA and counted. […]

[2] = tested on: proliferating CP and TD myoblast cultures; test: Global DNA methylation, MethylFlash Methylated DNA Quantification Kit; settings: 5 μM, 24 hours; FIG. 9A
Procedure: FIG. 9A illustrates global methylation levels of DNA in proliferating CP and TD myoblast cultures that were treated or non-treated with 5-AZA. Methylation levels were measured using a MethylFlash Methylated DNA Quantification Kit (EpiGentek, P-1034-96). Myoblasts were seeded into gelatin-coated 10 cm plates. Myoblast cell preparations from CP and TD study subjects were exposed to 5 μM of 5-AZA in proliferation medium. 5-AZA was introduced while the myoblast cell preparations were being developed in the high-serum medium, once the myoblast cell preparations were at about 60% of cell plate confluence by visual inspection. […] The myoblast cell preparations then had the 5-AZA washed off by switching the myoblast cell preparations each to fresh high-serum medium and further expanded to 90% of confluence. DNA was extracted from these cultures using the “DNA Purification from Cultured Cells” protocol as described in the Gentra Puregene DNA isolation kit (Qiagen, 158388).
In FIG. 9A, global methylation levels of DNA were investigated in proliferating CP and TD myoblast cultures that were treated or non-treated with 5-AZA. Methylation levels were measured using a MethylFlash Methylated DNA Quantification Kit (EpiGentek, P-1034-96). Myoblasts were seeded into gelatin-coated 10 cm plates. Myoblast cell preparations from CP and TD study subjects were exposed to 5 μM of 5-AZA in proliferation medium. […]

Nc1ncn([C@@H]2O[C@H](CO)[C@@H](O)[C@H]2O)c(=O)n1 [5-AZA, 5-azacytidine]
ITGB1D protein expression levels (ITGB1D): sufficient to restore ITGB1D protein expression levels | cell doubling time [1]: resulted in similar myoblast cell doubling times between CP and TD myoblasts | global methylation levels of DNA [2]: caused global DNA hypomethylation in both CP and TD patients
